Source: patent US20250270549A1, “MSI2 AS A THERAPEUTIC TARGET FOR THE TREATMENT OF MYOTONIC DYSTROPHY” (UNIVERSITAT DE VALÈNCIA, priority 2021, published 2025)
l = locked nucleic acid (LNA); d = 2'-deoxy (DNA)

Tests used:
[1] = system: TGFBR1; test: TGFBR1 expression by RT-qPCR in MD1 muscle cells; type: cell-based, H. sapiens; details: DM1 TDMs; 150 nM
Experimental: (§1) TDMs were cultured as previously described^1. After 4 days in differentiation medium (MDM), cells were transfected with a combination of two siRNAs (SEQ ID NO: 40 and 43) targeting MSI2 transcripts (final concentration 100 nM) using Lipofectamine RNAiMAX transfection reagent (Invitrogen, Madrid, Spain)) following the manufacturer's recommendations. After 48 h, the medium containing the siRNAs was replaced by fresh MDM. 24 h later, cells were collected. As a control, the same protocol was performed using 100 nM of a siRNA with a scrambled sequence (Cat #4390843 for negative control). Gapmers against MSI2 and agomiR-107 were transfected following the same protocol using two different concentrations, 30 and 150 nM in the case of Gapmers and 100 and 300 nM in the case of agomiR-107. To treat cells with the small molecule Ro-08-2750 (Tocris Cat. No. 2272, Bristol, UK)), cells were cultured as before. Briefly, after 96 h in MDM, the medium was supplemented with Ro-08-2750 at a final concentration of 10 μM (0.8% DMSO) or with the vehicle, DMSO 0.8%, for 48 h. Then cells were collected for further analyses.
(§2) All the procedures were performed as previously described^1.

[2] = system: ATG3, ATG4A, ATG5, ATG7, and mTOR; test: qRT-PCR of autophagy pathway genes in DM1 TDMs; type: cell-based, human; details: highest concentration (150 nM)
Experimental: (§3) FIG. 10. Inhibition of MSI2 expression in DM1 TDMs restores impaired autophagic markers. (A) qRT-PCR quantification of the relative expression of the indicated genes involved in different autophagy pathway steps in DM1 and control (green dashed lines) myotubes. Statistical analyses were performed comparing DM1 versus controls. (B) Analyses of the expression of genes quantified in (A) in DM1 myotubes treated with ASOs targeting MSI2 transcripts. All comparisons for the statistical analyses were performed using their corresponding scrambled control (dashed lines). […] Quantification and representative western blots of (C) ATG4A, (D) ATG7, (E) AKT-P/AKT total protein levels, and (F) LC3-II/LC3-I ratio in DM1 TDMs treated with MSI2 targeting or scrambled ASOs at the indicated concentrations. Green dashed lines indicate protein expression levels in control myotubes. β-actin was used as an endogenous control to normalize protein levels (n=3). The bar graphs show mean #SEM. * p<0.05, ** p<0.01, *** p<0.001, and **** p<0.0001 according to Student's t test.
as §2

[3] = system: miR-7; test: miR-7 quantification by RT-qPCR in MD1 cells; type: cell-based, human; details: MD1 cells, * significant
Experimental: as §1, §2

[4] = system: MSI2 transcripts; test: MSI2 relative expression (transcripts) by RT-qPCR in muscle cells; type: cell-based, H. sapiens
Experimental: as §1, §2

[5] = system: AKT; test: AKT pathway activation: phospho (Ser473)-AKT-to-total-AKT ratio; type: cell-based, human; details: DM1 TDMs; 150 nM
Experimental: as §3
Protein extraction, quantification and immunodetection were performed as previously described^1,3. Specifically, MSI2 detections were performed by incubating membranes overnight with a rabbit anti-MSI2 antibody (1:1000, Abcam, EP1305Y, Cambridge, UK). […] Quantification was performed using ImageJ software (NIH).

[6] = system: LC3; test: LC3 immunostaining and LC3 puncta quantification; type: cell-based, human; details: DM1 TDMs; compared to scrambled ASO at the same concentration
Experimental: For LC3B immunodetection, cells were differentiated in MDM for 7 days (3×10^5 cells/well in 24-well plates). After 48 h of gapmer treatment, cells were fixed with 4% PFA in PBS for 15 min at room temperature. After fixation, cells were permeabilized with methanol 100% for 15 min at −20° C. and blocked with blocking buffer (PBS 1×, 0.5% BSA, 1% goat serum) for 1 h at room temperature. Cells were incubated overnight (O/N) with rabbit anti-LC3B (1:200, ab51520; Abcam, Cambridge, UK) diluted in blocking buffer. Then, samples were incubated with goat anti-rabbit IgG (H+L) Alexa Fluor Plus 594 (1:200; Invitrogen, Carlsbad, CA, USA) for 2 h. Between antibodies, cells were washed three times with PBS 1×. Finally, cells were washed three times with PBS and mounted in Vectashield (Vector Laboratories, London, UK) with […] DAPI.
Image analyses of LC3-stained myotubes were performed using the Ifdotmeter software following the authors' recommendations (see Rodríguez-Arribas, M., et al. (2016). IFDOTMETER: A New Software Application for Automated Immunofluorescence Analysis. J. Lab. Autom. 21, 246-259). Briefly, the quantification of the number of LC3 dots or LC3 puncta was performed with 15-20 images per condition. Total LC3 dots per image were normalized relative to the total area corresponding to all myotubes observed in each image. Myotube area was measured by using ImageJ software. Data were expressed as the number of LC3 dots/mm2.

[7] = system: Human CNT myotubes
Experimental: (A) Cell growth inhibition assay by MTS method. Human CNT myotubes were transfected with increasing concentrations of ASO1, 2 and 3 (n=4). […] Vertical dashed lines indicate used concentrations in the following experiments: 30 and 150 nM.
Non-DM control (Ctrl) cells (CNT) were aliquoted in 96-well plates with 1.0×10^5 cells per well. After 24 h, cells were transfected as described with different ASOs (concentrations ranging from 1 nM to 1 μM) or treated with Ro-08-2750 (Tocris Bioscience, Bristol, UK) at concentrations ranging from 0.0195 up to 80 μM (in 1:2 serial dilutions). Cell viability was measured as previously described^3.

[8] = system: MD1 TDMs; test: Desmin immunostaining: myogenic fusion index and myotube diameter; type: cell-based, human; details: MD1 myotubes; 30 nM
Experimental: as §1
Desmin immunostaining and fusion index and diameter determination were performed as previously described^3. For MSI2 immunodetection, 3.5×10^4 fibroblasts/well were seeded in 24 well plates. After 7 days of differentiation into myotubes, cells were fixed with 4% paraformaldehyde (PFA) for 15 min. After 3 washes with PBS-T (0.1%×-TritonX-100 in PBS 1×) cells were blocked (PBS-T, 1% BSA, 5% normal goat serum) for 1 h and incubated with rabbit anti-MSI2 antibody (1:100, Abcam, EP1305Y, Cambridge, UK) in blocking buffer for 48 h at 4° C. After three washes with PBS-T, cells were incubated for 1 h with goat anti-rabbit-FITC IgG (1:200, Sigma-Aldrich, St. Louis, Missouri) in blocking buffer. Finally, cells were washed thrice with PBS 1× and were counterstained and mounted with VECTASHIELD® mounting medium containing DAPI (Vector Laboratories, London, UK) to detect the nuclei. Images were taken in a confocal microscope LSM800 (Zeiss) at 400× magnification.

## ASO1: gapmer antisense oligonucleotide against MSI2 transcript, SEQ ID NO: 76 (38), 5′ +T+G+A*C*T*T*C*T*T*T*C*G*G+C+T+G 3′, LNA ends, phosphorothioate linkages (antisense TGACTTCTTTCGGCTG; sugars from the 5' end l3 d10 l3, backbone and methylation of C not given here; further chemistry not fully specified)
[1]
  TGFBR1 expression: behaved the opposite
[2]
  ATG5 expression: significantly reduced
[3]; ASO 30 nM, Ro 08-2750 10 μM, siRNA 100 nM
  FC miR-7 expression respect to MD1, Low concentration: 1.49 fold
[3]; ASO 150 nM
  FC miR-7 expression respect to MD1, High concentration: 1.72* fold
[4]; DM1 TDMs, 30 and 150 nM
  MSI2 relative expression upon transfection: significant reduction
[4]; MD1-derived myoblasts, 150 nM
  reduction of MSI2 transcript: 27%
[5]
  AKT-P/AKT ratio: robust increase
[6]
  LC3 dots per unit of area: significant decrease
[7]
  TC10: 31.2 nM
[8]
  fusion capacity (fusion index and diameter): significant rescue
